Reference: patent US9708314B2, “Heterocyclic amide compound” (NISSAN CHEMICAL INDUSTRIES, LTD., priority 2013, dated 2017)

Assays:
Type in all cases: in vivo
[1] = system: Cyperus difformis; assay: Test Example 3: herbicidal effect by application to foliage (Wagner pot, water depth 0.1-0.5 cm); conditions: Nineteenth Table; application to foliage; application herbicide amount 320 g/ha
Summary of the method: (§1)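 Scores (0–5) reflect herbicidal ratio three weeks after a foliar spray: 0 is 5% or less, 5 is 90% or more. Plants had grown 14 days in alluvial soil pots in a 25–30 °C greenhouse before treatment with water-diluted emulsion at a set g/ha.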

[2] = system: Echinochloa crus-galli var. crus-galli; assay: as above; conditions: Nineteenth Table; application to foliage; application herbicide amount 320 g/ha
Summary of the method: as §1

[3] = system: Leptochloa chinensis; assay: as above; conditions: Nineteenth Table; application to foliage; application herbicide amount 320 g/ha
Summary of the method: as §1

[4] = system: directly sowed Oryza sativa; assay: Test Example 3: effect on crop by application to foliage (Wagner pot, water depth 0.1-0.5 cm); conditions: Nineteenth Table; application to foliage; application herbicide amount 320 g/ha
Summary of the method: as §1

[5] = system: Abutilon theophrasti; assay: Test Example 4: herbicidal effect by application to foliage (diluvial soil, plastic box); conditions: 320 g/ha; for M (Abutilon theophrasti) herbicidal effect grade: foliage application
Summary of the method: (§2)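 Greenhouse plants (25° C. to 30° C., 14 d, diluvial soil) receive a foliar spray of water-diluted emulsifiable formulation at defined g/ha. Grading after 3 weeks uses a six-step herbicidal-ratio scale, with 4 covering 70% to <90% and 1 covering 5% to <20%.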

[6] = system: Alopecurus myosuroides; assay: as above; conditions: 320 g/ha; for J (Alopecurus myosuroides) herbicidal effect grade: foliage application
Summary of the method: as §2

[7] = system: Amaranthus retroflexus; assay: as above; conditions: 320 g/ha; for N (Amaranthus retroflexus) herbicidal effect grade: foliage application
Summary of the method: as §2

[8] = system: Apera spica-venti.; assay: as above; conditions: 320 g/ha; for L (Apera spica-venti.) herbicidal effect grade: foliage application
Summary of the method: as §2

[9] = system: Avena fatua; assay: as above; conditions: 320 g/ha; for I (Avena fatua) herbicidal effect grade: foliage application
Summary of the method: as §2

[10] = system: Chenopodium album; assay: as above; conditions: 320 g/ha; for O (Chenopodium album) herbicidal effect grade: foliage application
Summary of the method: as §2

[11] = system: Digitaria ciliaris; assay: as above; conditions: 320 g/ha; for F (Digitaria ciliaris) herbicidal effect grade: foliage application
Summary of the method: as §2

[12] = system: Echinochloa crus-galli var. crus-galli; assay: as above; conditions: 320 g/ha; for H (Echinochloa crus-galli var. crus-galli) herbicidal effect grade: foliage application
Summary of the method: as §2

[13] = system: Galium spurium; assay: as above; conditions: 320 g/ha; for Q (Galium spurium) herbicidal effect grade: foliage application
Summary of the method: as §2

[14] = system: Lolium multiflorum Lam.; assay: as above; conditions: 320 g/ha; for K (Lolium multiflorum Lam.) herbicidal effect grade: foliage application
Summary of the method: as §2

[15] = system: Setaria viridis; assay: as above; conditions: 320 g/ha; for G (Setaria viridis) herbicidal effect grade: foliage application
Summary of the method: as §2

[16] = system: Stellaria media; assay: as above; conditions: 320 g/ha; for P (Stellaria media) herbicidal effect grade: foliage application
Summary of the method: as §2

[17] = system: Veronica persica; assay: as above; conditions: 320 g/ha; for R (Veronica persica) herbicidal effect grade: foliage application
Summary of the method: as §2

## CC(C)CSc1nnc2c(C(=O)Nc3nnnn3C)ccc(C(F)(F)F)n12 [2-071]
[1]
  E (herbicidal effect grade): 5 (Herbicidal ratio of 90% or more (almost completely withered))
[2]
  H (herbicidal effect grade): 4 (Herbicidal ratio of 70% or more and less than 90%)
[3]
  D (herbicidal effect grade): 5 (Herbicidal ratio of 90% or more (almost completely withered))
[4]
  b (effect on crop grade): 3 (Herbicidal ratio of 40% or more and less than 70%)
[5]
  M (Abutilon theophrasti) herbicidal effect grade: 4 (Herbicidal ratio of 70% or more and less than 90%)
[6]
  J (Alopecurus myosuroides) herbicidal effect grade: 1 (Herbicidal ratio of 5% or more and less than 20%)
[7]
  N (Amaranthus retroflexus) herbicidal effect grade: 5 (Herbicidal ratio of 90% or more (almost completely withered))
[8]
  L (Apera spica-venti.) herbicidal effect grade: 1 (Herbicidal ratio of 5% or more and less than 20%)
[9]
  I (Avena fatua) herbicidal effect grade: 2 (Herbicidal ratio of 20% or more and less than 40%)
[10]
  O (Chenopodium album) herbicidal effect grade: 5 (Herbicidal ratio of 90% or more (almost completely withered))
[11]
  F (Digitaria ciliaris) herbicidal effect grade: 5 (Herbicidal ratio of 90% or more (almost completely withered))
[12]
  H (Echinochloa crus-galli var. crus-galli) herbicidal effect grade: 5 (Herbicidal ratio of 90% or more (almost completely withered))
[13]
  Q (Galium spurium) herbicidal effect grade: 3 (Herbicidal ratio of 40% or more and less than 70%)
[14]
  K (Lolium multiflorum Lam.) herbicidal effect grade: 1 (Herbicidal ratio of 5% or more and less than 20%)
[15]
  G (Setaria viridis) herbicidal effect grade: 4 (Herbicidal ratio of 70% or more and less than 90%)
[16]
  P (Stellaria media) herbicidal effect grade: 5 (Herbicidal ratio of 90% or more (almost completely withered))
[17]
  R (Veronica persica) herbicidal effect grade: 5 (Herbicidal ratio of 90% or more (almost completely withered))

## CCC(C)Sc1nnc2c(C(=O)Nc3nnnn3C)ccc(C(F)(F)F)n12 (stereo not shown) [2-072]
[1]
  E (herbicidal effect grade): 5 (Herbicidal ratio of 90% or more (almost completely withered))
[2]
  H (herbicidal effect grade): 4 (Herbicidal ratio of 70% or more and less than 90%)
[3]
  D (herbicidal effect grade): 5 (Herbicidal ratio of 90% or more (almost completely withered))
[4]
  b (effect on crop grade): 1 (Herbicidal ratio of 5% or more and less than 20%)
[5]
  M (Abutilon theophrasti) herbicidal effect grade: 5 (Herbicidal ratio of 90% or more (almost completely withered))
[6]
  J (Alopecurus myosuroides) herbicidal effect grade: 1 (Herbicidal ratio of 5% or more and less than 20%)
[7]
  N (Amaranthus retroflexus) herbicidal effect grade: 5 (Herbicidal ratio of 90% or more (almost completely withered))
[8]
  L (Apera spica-venti.) herbicidal effect grade: 3 (Herbicidal ratio of 40% or more and less than 70%)
[9]
  I (Avena fatua) herbicidal effect grade: 1 (Herbicidal ratio of 5% or more and less than 20%)
[10]
  O (Chenopodium album) herbicidal effect grade: 5 (Herbicidal ratio of 90% or more (almost completely withered))
[11]
  F (Digitaria ciliaris) herbicidal effect grade: 5 (Herbicidal ratio of 90% or more (almost completely withered))
[12]
  H (Echinochloa crus-galli var. crus-galli) herbicidal effect grade: 5 (Herbicidal ratio of 90% or more (almost completely withered))
[13]
  Q (Galium spurium) herbicidal effect grade: 3 (Herbicidal ratio of 40% or more and less than 70%)
[14]
  K (Lolium multiflorum Lam.) herbicidal effect grade: 1 (Herbicidal ratio of 5% or more and less than 20%)
[15]
  G (Setaria viridis) herbicidal effect grade: 5 (Herbicidal ratio of 90% or more (almost completely withered))
[16]
  P (Stellaria media) herbicidal effect grade: 5 (Herbicidal ratio of 90% or more (almost completely withered))
[17]
  R (Veronica persica) herbicidal effect grade: 5 (Herbicidal ratio of 90% or more (almost completely withered))

## CC(C)c1nnc2c(C(=O)Nc3nnnn3-c3ccccc3)ccc(C(F)(F)F)n12 [2-073]
[1]
  E (herbicidal effect grade): 5 (Herbicidal ratio of 90% or more (almost completely withered))
[2]
  H (herbicidal effect grade): 4 (Herbicidal ratio of 70% or more and less than 90%)
[3]
  D (herbicidal effect grade): 3 (Herbicidal ratio of 40% or more and less than 70%)
[4]
  b (effect on crop grade): 2 (Herbicidal ratio of 20% or more and less than 40%)
[5]
  M (Abutilon theophrasti) herbicidal effect grade: 3 (Herbicidal ratio of 40% or more and less than 70%)
[6]
  J (Alopecurus myosuroides) herbicidal effect grade: 0 (Herbicidal ratio of 5% or less (almost no effect))
[7]
  N (Amaranthus retroflexus) herbicidal effect grade: 3 (Herbicidal ratio of 40% or more and less than 70%)
[8]
  L (Apera spica-venti.) herbicidal effect grade: 0 (Herbicidal ratio of 5% or less (almost no effect))
[9]
  I (Avena fatua) herbicidal effect grade: 1 (Herbicidal ratio of 5% or more and less than 20%)
[10]
  O (Chenopodium album) herbicidal effect grade: 5 (Herbicidal ratio of 90% or more (almost completely withered))
[11]
  F (Digitaria ciliaris) herbicidal effect grade: 1 (Herbicidal ratio of 5% or more and less than 20%)
[12]
  H (Echinochloa crus-galli var. crus-galli) herbicidal effect grade: 4 (Herbicidal ratio of 70% or more and less than 90%)
[13]
  Q (Galium spurium) herbicidal effect grade: 0 (Herbicidal ratio of 5% or less (almost no effect))
[14]
  K (Lolium multiflorum Lam.) herbicidal effect grade: 1 (Herbicidal ratio of 5% or more and less than 20%)
[15]
  G (Setaria viridis) herbicidal effect grade: 1 (Herbicidal ratio of 5% or more and less than 20%)
[16]
  P (Stellaria media) herbicidal effect grade: 4 (Herbicidal ratio of 70% or more and less than 90%)
[17]
  R (Veronica persica) herbicidal effect grade: 2 (Herbicidal ratio of 20% or more and less than 40%)

## COCCNc1nnc2c(C(=O)Nc3nnnn3C)ccc(C(F)(F)F)n12 [2-074]
[1]
  E (herbicidal effect grade): 4 (Herbicidal ratio of 70% or more and less than 90%)
[2]
  H (herbicidal effect grade): 5 (Herbicidal ratio of 90% or more (almost completely withered))
[3]
  D (herbicidal effect grade): 5 (Herbicidal ratio of 90% or more (almost completely withered))
[4]
  b (effect on crop grade): 5 (Herbicidal ratio of 90% or more (almost completely withered))
[5]
  M (Abutilon theophrasti) herbicidal effect grade: 4 (Herbicidal ratio of 70% or more and less than 90%)
[6]
  J (Alopecurus myosuroides) herbicidal effect grade: 3 (Herbicidal ratio of 40% or more and less than 70%)
[7]
  N (Amaranthus retroflexus) herbicidal effect grade: 5 (Herbicidal ratio of 90% or more (almost completely withered))
[8]
  L (Apera spica-venti.) herbicidal effect grade: 3 (Herbicidal ratio of 40% or more and less than 70%)
[9]
  I (Avena fatua) herbicidal effect grade: 4 (Herbicidal ratio of 70% or more and less than 90%)
[10]
  O (Chenopodium album) herbicidal effect grade: 5 (Herbicidal ratio of 90% or more (almost completely withered))
[11]
  F (Digitaria ciliaris) herbicidal effect grade: 5 (Herbicidal ratio of 90% or more (almost completely withered))
[12]
  H (Echinochloa crus-galli var. crus-galli) herbicidal effect grade: 5 (Herbicidal ratio of 90% or more (almost completely withered))
[13]
  Q (Galium spurium) herbicidal effect grade: 3 (Herbicidal ratio of 40% or more and less than 70%)
[14]
  K (Lolium multiflorum Lam.) herbicidal effect grade: 3 (Herbicidal ratio of 40% or more and less than 70%)
[15]
  G (Setaria viridis) herbicidal effect grade: 4 (Herbicidal ratio of 70% or more and less than 90%)
[16]
  P (Stellaria media) herbicidal effect grade: 4 (Herbicidal ratio of 70% or more and less than 90%)
[17]
  R (Veronica persica) herbicidal effect grade: 5 (Herbicidal ratio of 90% or more (almost completely withered))

## Cn1nnnc1NC(=O)c1ccc(C(F)(F)F)n2c(N3CCOCC3)nnc12 [2-075]
[1]
  E (herbicidal effect grade): 5 (Herbicidal ratio of 90% or more (almost completely withered))
[2]
  H (herbicidal effect grade): 5 (Herbicidal ratio of 90% or more (almost completely withered))
[3]
  D (herbicidal effect grade): 5 (Herbicidal ratio of 90% or more (almost completely withered))
[4]
  b (effect on crop grade): 5 (Herbicidal ratio of 90% or more (almost completely withered))
[5]; application to foliage
  herbicidal effect, M (Abutilon theophrasti): 5 (Herbicidal ratio of 90% or more (almost completely withered))
[6]; application to foliage
  herbicidal effect, J (Alopecurus myosuroides): 4 (Herbicidal ratio of 70% or more and less than 90%)
[7]; application to foliage
  herbicidal effect, N (Amaranthus retroflexus): 5 (Herbicidal ratio of 90% or more (almost completely withered))
[8]; application to foliage
  herbicidal effect, L (Apera spica-venti.): 4 (Herbicidal ratio of 70% or more and less than 90%)
[9]; application to foliage
  herbicidal effect, I (Avena fatua): 5 (Herbicidal ratio of 90% or more (almost completely withered))
[10]; application to foliage
  herbicidal effect, O (Chenopodium album): 5 (Herbicidal ratio of 90% or more (almost completely withered))
[11]; application to foliage
  herbicidal effect, F (Digitaria ciliaris): 5 (Herbicidal ratio of 90% or more (almost completely withered))
[12]; application to foliage
  herbicidal effect, H (Echinochloa crus-galli var. crus-galli): 5 (Herbicidal ratio of 90% or more (almost completely withered))
[13]; application to foliage
  herbicidal effect, Q (Galium spurium): 4 (Herbicidal ratio of 70% or more and less than 90%)
[14]; application to foliage
  herbicidal effect, K (Lolium multiflorum Lam.): 4 (Herbicidal ratio of 70% or more and less than 90%)
[15]; application to foliage
  herbicidal effect, G (Setaria viridis): 5 (Herbicidal ratio of 90% or more (almost completely withered))
[16]; application to foliage
  herbicidal effect, P (Stellaria media): 5 (Herbicidal ratio of 90% or more (almost completely withered))
[17]; application to foliage
  herbicidal effect, R (Veronica persica): 5 (Herbicidal ratio of 90% or more (almost completely withered))
